From US11178871B2, “Herbicidal pyrimidine compounds” (BASF SE, priority 2016, dated 2021)

Tests used:
Assay type in all cases: in vivo
Apera spica-venti = assay: greenhouse test, pre-emergence treatment, APESV
In short: (§1)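 Damage scored visually on a 0-100 scale (100 = no emergence or complete destruction of aerial parts, 0 = normal growth) after 2 to 4 weeks. Treatment was applied pre-emergence as an aqueous suspension or emulsion immediately after sowing in loamy sand (approx. 3.0% humus).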

Echinocloa crus-galli [1] = assay: greenhouse test, pre-emergence treatment, ECHCG
In short: as §1

Setaria viridis = assay: greenhouse test, post-emergence treatment, SETVI
Excerpt: (§2) The culture containers used were plastic flowerpots containing loamy sand with approximately 3.0% of humus as the substrate. The seeds of the test plants were sown separately for each species.
(§3) For the post-emergence treatment, the test plants were first grown to a height of 3 to 15 cm, depending on the plant habit, and only then treated with the active ingredients which had been suspended or emulsified in water. For this purpose, the test plants were either sown directly and grown in the same containers, or they were first grown separately as seedlings and transplanted into the test containers a few days prior to treatment.
(§4) Depending on the species, the plants were kept at 10-25° C. or 20-35° C., respectively.
(§5) The test period extended over 2 to 4 weeks. During this time, the plants were tended, and their response to the individual treatments was evaluated.
(§6) Evaluation was carried out using a scale from 0 to 100. 100 means no emergence of the plants, or complete destruction of at least the aerial moieties, and 0 means no damage, or normal course of growth. A good herbicidal activity is given at values of at least 70 and a very good herbicidal activity is given at values of at least 85.
(§7) The plants used in the greenhouse experiments were of the following species: […]

Echinocloa crus-galli [2] = assay: greenhouse test, post-emergence treatment, ECHCG; details: post-emergence
In short: (§8)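 Post-emergence greenhouse herbicide test: plants at 3–15 cm sprayed with aqueous formulation of compound, then evaluated on a 0–100 damage scale after 2–4 weeks.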

Alopecurus myosuroides = assay: greenhouse test, post-emergence treatment, ALOMY; details: post-emergence
In short: as §8

Amaranthus retroflexus = assay: greenhouse test, post-emergence treatment, AMARE
Excerpt: as §2, §3, §4, §5, §6, §7

Abutilon theophrasti = assay: greenhouse test, post-emergence treatment, ABUTH
Excerpt: as §2, §3, §4, §5, §6, §7

Avena fatua = assay: greenhouse test, post-emergence treatment, AVEFA
In short: as §8

With `Cc1nc(-c2nc(C3CC3)ncc2-c2ccccc2Cl)c(C)o1` [Ex. 277] the herbicidal activity (Apera spica-venti; 1000 g/ha) was “very good (a very good herbicidal activity is given at values of at least 85)”, the herbicidal activity (Echinocloa crus-galli [1]; 1000 g/ha) was “very good (a very good herbicidal activity is given at values of at least 85)” and the herbicidal activity (Setaria viridis; 1000 g/ha) was “very good (a very good herbicidal activity is given at values of at least 85)”. The herbicidal activity (Echinocloa crus-galli [2]; 1000 g/ha) was “very good (a very good herbicidal activity is given at values of at least 85)” and the herbicidal activity (Alopecurus myosuroides; 1000 g/ha) was “very good (a very good herbicidal activity is given at values of at least 85)”.
For `CC(O)c1nc(C2CC2)ncc1-c1ccccc1Cl` (stereo not drawn) [Ex. 49], the herbicidal activity (Apera spica-venti; 1000 g/ha) was “good (A good herbicidal activity is given at values of at least 70)”, the herbicidal activity (Echinocloa crus-galli [1]; 1000 g/ha) was “good (A good herbicidal activity is given at values of at least 70)” and the herbicidal activity (Setaria viridis; 1000 g/ha) was “very good (a very good herbicidal activity is given at values of at least 85)”. For the same compound, the herbicidal activity (Echinocloa crus-galli [2]; 1000 g/ha) was “good (A good herbicidal activity is given at values of at least 70)” and the herbicidal activity (Alopecurus myosuroides; 1000 g/ha) was “very good (a very good herbicidal activity is given at values of at least 85)”.
In the case of `Cc1oc(Br)cc1-c1nc(C2CC2)ncc1-c1ccccc1Br` [Ex. 253], the herbicidal activity (Amaranthus retroflexus; 1000 g/ha) is reported as “very good (a very good herbicidal activity is given at values of at least 85)”, the herbicidal activity (Abutilon theophrasti; 1000 g/ha) is reported as “good (A good herbicidal activity is given at values of at least 70)” and the herbicidal activity (Alopecurus myosuroides; 1000 g/ha) is reported as “very good (a very good herbicidal activity is given at values of at least 85)”.
In the case of `Cc1ccccc1-c1cnc(C2CC2)nc1C` [Ex. 19], the herbicidal activity (Amaranthus retroflexus; 2000 g/ha) is reported as “very good (a very good herbicidal activity is given at values of at least 85)” and the herbicidal activity (Abutilon theophrasti; 2000 g/ha) is reported as “very good (a very good herbicidal activity is given at values of at least 85)”.
For `Clc1ccccc1-c1cnc(C2CC2)nc1-c1cccnc1` [Ex. 123], the herbicidal activity (Amaranthus retroflexus; 2000 g/ha) was “very good (a very good herbicidal activity is given at values of at least 85)” and the herbicidal activity (Setaria viridis; 2000 g/ha) was “good (A good herbicidal activity is given at values of at least 70)”.
In the case of `Clc1ccccc1-c1cnc(C2CC2)nc1C1CCCS1` (stereo not drawn) [Ex. 55], the herbicidal activity (Amaranthus retroflexus; 1000 g/ha) is reported as “very good (a very good herbicidal activity is given at values of at least 85)” and the herbicidal activity (Setaria viridis; 1000 g/ha) is reported as “very good (a very good herbicidal activity is given at values of at least 85)”.
In the case of `CC1(C)OC(c2nc(C3CC3)ncc2-c2ccccc2Cl)C(C)(C)O1` (stereo not drawn) [Ex. 266], the herbicidal activity (Amaranthus retroflexus; 1000 g/ha) is reported as “very good (a very good herbicidal activity is given at values of at least 85)”, the herbicidal activity (Apera spica-venti; 1000 g/ha) is reported as “very good (a very good herbicidal activity is given at values of at least 85)” and the herbicidal activity (Echinocloa crus-galli [1]; 1000 g/ha) is reported as “very good (a very good herbicidal activity is given at values of at least 85)”. For the same compound, the herbicidal activity (Abutilon theophrasti; 1000 g/ha) was “very good (a very good herbicidal activity is given at values of at least 85)” and the herbicidal activity (Alopecurus myosuroides; 1000 g/ha) was “very good (a very good herbicidal activity is given at values of at least 85)”.
`COC(=O)C(C)c1nc(C2CC2)ncc1-c1ccccc1Br` (stereo not drawn) [Ex. 85] was tested, and the herbicidal activity (Amaranthus retroflexus; 2000 g/ha) was “good (A good herbicidal activity is given at values of at least 70)” and the herbicidal activity (Abutilon theophrasti; 2000 g/ha) was “very good (a very good herbicidal activity is given at values of at least 85)”.
In the case of `CC(C)CC#Cc1nc(C2CC2)ncc1-c1ccccc1Cl` [Ex. 28], the herbicidal activity (Amaranthus retroflexus; 1163 g/ha) is reported as “very good (a very good herbicidal activity is given at values of at least 85)” and the herbicidal activity (Abutilon theophrasti; 1163 g/ha) is reported as “good (A good herbicidal activity is given at values of at least 70)”.
For `Cc1nc(C)c(-c2nc(C3CC3)ncc2-c2cc(Br)ccc2Br)o1` [Ex. 292], the herbicidal activity (Apera spica-venti; 1000 g/ha) was “very good (a very good herbicidal activity is given at values of at least 85)”, the herbicidal activity (Echinocloa crus-galli [1]; 1000 g/ha) was “very good (a very good herbicidal activity is given at values of at least 85)” and the herbicidal activity (Setaria viridis; 1000 g/ha) was “very good (a very good herbicidal activity is given at values of at least 85)”. The herbicidal activity (Echinocloa crus-galli [2]; 1000 g/ha) was “very good (a very good herbicidal activity is given at values of at least 85)” and the herbicidal activity (Alopecurus myosuroides; 1000 g/ha) was “good (A good herbicidal activity is given at values of at least 70)”.
For `Cc1nc(C(C)(Br)Br)ncc1-c1ccccc1Cl` [Ex. 50], the herbicidal activity (Amaranthus retroflexus; 500 g/ha) was “very good (a very good herbicidal activity is given at values of at least 85)” and the herbicidal activity (Setaria viridis; 500 g/ha) was “very good (a very good herbicidal activity is given at values of at least 85)”.
In the case of `Cc1ncoc1-c1nc(C2CC2)ncc1-c1cc(Br)ccc1Br` [Ex. 273], the herbicidal activity (Amaranthus retroflexus; 1000 g/ha) is reported as “very good (a very good herbicidal activity is given at values of at least 85)”, the herbicidal activity (Apera spica-venti; 1000 g/ha) is reported as “very good (a very good herbicidal activity is given at values of at least 85)” and the herbicidal activity (Echinocloa crus-galli [1]; 1000 g/ha) is reported as “very good (a very good herbicidal activity is given at values of at least 85)”. For the same compound, the herbicidal activity (Setaria viridis; 1000 g/ha) was “very good (a very good herbicidal activity is given at values of at least 85)” and the herbicidal activity (Alopecurus myosuroides; 1000 g/ha) was “very good (a very good herbicidal activity is given at values of at least 85)”.
For `CC1(C)OCC(=Cc2nc(C3CC3)ncc2-c2ccccc2Cl)CO1` [Ex. 296], the herbicidal activity (Abutilon theophrasti; 1000 g/ha) was “very good (a very good herbicidal activity is given at values of at least 85)”.
For `CCc1nc(C)c(-c2nc(C3CC3)ncc2-c2ccccc2Cl)o1` [Ex. 272], the herbicidal activity (Avena fatua; 2000 g/ha) was “very good (a very good herbicidal activity is given at values of at least 85)”, the herbicidal activity (Apera spica-venti; 2000 g/ha) was “very good (a very good herbicidal activity is given at values of at least 85)” and the herbicidal activity (Echinocloa crus-galli [1]; 2000 g/ha) was “very good (a very good herbicidal activity is given at values of at least 85)”. The herbicidal activity (Setaria viridis; 2000 g/ha) was “very good (a very good herbicidal activity is given at values of at least 85)” and the herbicidal activity (Alopecurus myosuroides; 2000 g/ha) was “very good (a very good herbicidal activity is given at values of at least 85)”.
For `Cc1occc1-c1nc(C2CC2)ncc1-c1ccccc1Cl` [Ex. 58], the herbicidal activity (Avena fatua; 1000 g/ha) was “good (A good herbicidal activity is given at values of at least 70)” and the herbicidal activity (Setaria viridis; 1000 g/ha) was “very good (a very good herbicidal activity is given at values of at least 85)”.
In the case of `Cc1ncoc1-c1nc(C2CC2)ncc1-c1cc(C(F)(F)F)ccc1Cl` [Ex. 262], the herbicidal activity (Amaranthus retroflexus; 1000 g/ha) is reported as “very good (a very good herbicidal activity is given at values of at least 85)”, the herbicidal activity (Apera spica-venti; 1000 g/ha) is reported as “very good (a very good herbicidal activity is given at values of at least 85)” and the herbicidal activity (Echinocloa crus-galli [1]; 1000 g/ha) is reported as “very good (a very good herbicidal activity is given at values of at least 85)”. The herbicidal activity (Setaria viridis; 1000 g/ha) was “very good (a very good herbicidal activity is given at values of at least 85)” and the herbicidal activity (Echinocloa crus-galli [2]; 1000 g/ha) was “very good (a very good herbicidal activity is given at values of at least 85)”.
In the case of `CC(C)(C)c1ncc(-c2nc(C3CC3)ncc2-c2ccccc2Cl)o1` [Ex. 294], the herbicidal activity (Apera spica-venti; 2000 g/ha) is reported as “good (A good herbicidal activity is given at values of at least 70)”, the herbicidal activity (Abutilon theophrasti; 2000 g/ha) is reported as “very good (a very good herbicidal activity is given at values of at least 85)” and the herbicidal activity (Echinocloa crus-galli [2]; 2000 g/ha) is reported as “very good (a very good herbicidal activity is given at values of at least 85)”. For the same compound, the herbicidal activity (Alopecurus myosuroides; 2000 g/ha) was “very good (a very good herbicidal activity is given at values of at least 85)”.
In the case of `CCc1ocnc1-c1nc(C2CC2)ncc1-c1ccccc1Cl` [Ex. 282], the herbicidal activity (Avena fatua; 2000 g/ha) is reported as “very good (a very good herbicidal activity is given at values of at least 85)”, the herbicidal activity (Apera spica-venti; 2000 g/ha) is reported as “very good (a very good herbicidal activity is given at values of at least 85)” and the herbicidal activity (Echinocloa crus-galli [1]; 2000 g/ha) is reported as “very good (a very good herbicidal activity is given at values of at least 85)”. The herbicidal activity (Setaria viridis; 2000 g/ha) was “very good (a very good herbicidal activity is given at values of at least 85)” and the herbicidal activity (Alopecurus myosuroides; 2000 g/ha) was “very good (a very good herbicidal activity is given at values of at least 85)”.
`COc1ncc(-c2ccccc2Cl)c(/C=C/c2ccco2)n1` [Ex. 228] was tested, and the herbicidal activity (Apera spica-venti; 1000 g/ha) was “very good (a very good herbicidal activity is given at values of at least 85)”, the herbicidal activity (Abutilon theophrasti; 1000 g/ha) was “good (A good herbicidal activity is given at values of at least 70)” and the herbicidal activity (Echinocloa crus-galli [2]; 1000 g/ha) was “good (A good herbicidal activity is given at values of at least 70)”.
In the case of `Cc1coc(C)c1-c1nc(C2CC2)ncc1-c1ccccc1Br` [Ex. 252], the herbicidal activity (Abutilon theophrasti; 1000 g/ha) is reported as “very good (a very good herbicidal activity is given at values of at least 85)”.
With `Cn1c(-c2nc(C3CC3)ncc2-c2ccccc2Cl)coc1=O` [Ex. 289] the herbicidal activity (Amaranthus retroflexus; 2000 g/ha) was “very good (a very good herbicidal activity is given at values of at least 85)”, the herbicidal activity (Apera spica-venti; 2000 g/ha) was “very good (a very good herbicidal activity is given at values of at least 85)” and the herbicidal activity (Echinocloa crus-galli [1]; 2000 g/ha) was “very good (a very good herbicidal activity is given at values of at least 85)”. The herbicidal activity (Setaria viridis; 2000 g/ha) was “very good (a very good herbicidal activity is given at values of at least 85)” and the herbicidal activity (Alopecurus myosuroides; 2000 g/ha) was “very good (a very good herbicidal activity is given at values of at least 85)”.
`Cc1nc(C)c(-c2nc(C3CC3)ncc2-c2ccc(F)cc2Cl)o1` [Ex. 276] was tested, and the herbicidal activity (Amaranthus retroflexus; 1000 g/ha) was “very good (a very good herbicidal activity is given at values of at least 85)”, the herbicidal activity (Apera spica-venti; 1000 g/ha) was “very good (a very good herbicidal activity is given at values of at least 85)” and the herbicidal activity (Abutilon theophrasti; 1000 g/ha) was “very good (a very good herbicidal activity is given at values of at least 85)”. For the same compound, the herbicidal activity (Alopecurus myosuroides; 1000 g/ha) was “very good (a very good herbicidal activity is given at values of at least 85)”.
